Experiments:
Rattus norvegicus [1] = assay: In vivo percent change in plasma cholesterol level was measured at a dose of 30 mg/Kg in rat and expressed as deltaTC; p < 0.01; assay type: functional
[2] = biological target: T1, Acyl-CoA:cholesterol acyltransferase (Oryctolagus cuniculus, UniProt Q95214); assay: In vitro inhibition of ACAT by incubation with [1-14C]oleolyl-CoA and intestinal microsomes isolated from cholesterol-fed rabbits.; design: species or system Intestine
T1 sequence (Q95214 whole entry): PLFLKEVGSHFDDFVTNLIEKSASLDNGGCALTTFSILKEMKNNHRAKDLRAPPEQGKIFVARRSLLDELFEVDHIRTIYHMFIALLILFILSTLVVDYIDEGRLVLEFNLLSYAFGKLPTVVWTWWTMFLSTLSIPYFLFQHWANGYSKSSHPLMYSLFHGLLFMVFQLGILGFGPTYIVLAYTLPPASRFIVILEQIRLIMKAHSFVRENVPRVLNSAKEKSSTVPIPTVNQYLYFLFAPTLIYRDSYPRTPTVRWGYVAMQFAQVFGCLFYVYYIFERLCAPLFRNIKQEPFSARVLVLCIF

Rattus norvegicus [3] = assay: In vivo percent change in plasma cholesterol level was measured at a dose of 30 mg/Kg in rat and expressed as deltaTC; p < 0.05; assay type: functional
Rattus norvegicus [4] = assay: In vivo percent change in plasma cholesterol level was measured at a dose of 10 mg/Kg in rat and expressed as deltaTC; not significant; assay type: functional
Rattus norvegicus [5] = assay: In vivo percent change in plasma cholesterol level was measured at a dose of 1 mg/Kg in rat and expressed as deltaTC; not significant; assay type: functional
Rattus norvegicus [6] = assay: In vivo percent change in plasma cholesterol level was measured at a dose of 30 mg/Kg in rat and expressed as deltaTC; not significant; assay type: functional
Rattus norvegicus [7] = assay: In vivo percent change in plasma cholesterol level was measured at a dose of 30 mg/Kg in rat and expressed as deltaTC; p < 0.001; assay type: functional
Rattus norvegicus [8] = assay: In vivo percent change in plasma cholesterol level was measured at a dose of 1 mg/Kg in rat and expressed as deltaTC; p < 0.05; assay type: functional

SMILES	IC50 [2] [nM]	DeltaTC (Rattus norvegicus [1]) [%]	further results
CCCCCCCCCCCCCCOC(=O)CS(=O)(=O)Nc1c(C(C)C)cccc1C(C)C		-45	
COP(=O)(Cc1c(C(C)C)cccc1C(C)C)NC(=O)Cc1c(C(C)C)cc(C(C)C)cc1C(C)C (stereo not drawn)	1200		DeltaTC (Rattus norvegicus [4]): -2%
COP(=O)(NC(=O)Cc1c(C(C)C)cc(C(C)C)cc1C(C)C)Oc1c(C(C)C)cc(Cl)cc1C(C)C (stereo not drawn)	> 5000		DeltaTC (Rattus norvegicus [5]): -12%
CC(C)c1cccc(C(C)C)c1OC(=O)[N-]S(=O)(=O)Oc1c(C(C)C)cccc1C(C)C.[Na+]	5200	-74	
COP(=O)(Cc1c(C(C)C)cc(C(C)C)cc1C(C)C)NC(=O)Cc1c(C(C)C)cccc1C(C)C (stereo not drawn)	290		
COP(=O)(NC(=O)Cc1c(C(C)C)cc(C(C)C)cc1C(C)C)Oc1c(C(C)C)cccc1C(C)C (stereo not drawn)	4800		
CC(C)c1cccc(C(C)C)c1NS(=O)(=O)CC(=O)NCC1(c2ccccc2)CCCC1	> 1000		
COP(=O)(Cc1c(C(C)C)cc(C(C)C)cc1C(C)C)NC(=O)Cc1c(C(C)C)cc(C(C)C)cc1C(C)C (stereo not drawn)	740		DeltaTC (Rattus norvegicus [4]): -17%
CCCCCCCCCCCCSC(=O)CS(=O)(=O)Nc1c(C(C)C)cccc1C(C)C	73	-71	
CC(C)c1cc(C(C)C)c(CC(=O)NP(=O)(Oc2c(C(C)C)cccc2C(C)C)c2ccccc2)c(C(C)C)c1 (stereo not drawn)	2500		DeltaTC (Rattus norvegicus [8]): -25%
CCCCCCCCCCCCNC(=O)CS(=O)(=O)Nc1c(C(C)C)cccc1C(C)C	320	-29	
CCCCCCCCCCSC(=O)CS(=O)(=O)Nc1c(C(C)C)cccc1C(C)C	130		
CCCCCCCCSC(=O)CS(=O)(=O)Nc1c(C(C)C)cccc1C(C)C	150		DeltaTC (Rattus norvegicus [3]): -32%
CCCCCCCCCCCCOC(=O)CS(=O)(=O)Nc1c(C(C)C)cccc1C(C)C		-34	
CCCCCCCCCCCCCCSC(=O)CS(=O)(=O)Nc1c(C(C)C)cccc1C(C)C	36	-23	
CCCCCCCCCCCCCCCCCCSC(=O)CS(=O)(=O)Nc1c(C(C)C)cccc1C(C)C	> 5000		DeltaTC (Rattus norvegicus [6]): -35%
CCCCCCCCCCCCC(C)OC(=O)CS(=O)(=O)Nc1c(C(C)C)cccc1C(C)C (stereo not drawn)	21		DeltaTC (Rattus norvegicus [7]): -39%
CCCCCCCCN(CCCCCCCC)C(=O)CS(=O)(=O)Nc1c(C(C)C)cccc1C(C)C			DeltaTC (Rattus norvegicus [6]): -19%

The next lines start with results.

IC50 [2] [nM]	SMILES	DeltaTC (Rattus norvegicus [1]) [%]	further results
> 1000	CCCCCCCCCCOC(=O)CS(=O)(=O)Nc1c(C(C)C)cccc1C(C)C		DeltaTC (Rattus norvegicus [3]): -16%
150	CC(C)c1cccc(C(C)C)c1NS(=O)(=O)CC(=O)N(Cc1ccccc1)C(C)C	-31	
7	CC(C)c1cccc(C(C)C)c1NC(=O)CS(=O)(=O)Oc1c(C(C)C)cccc1C(C)C	-42	
> 1000	CC(C)c1cccc(C(C)C)c1NS(=O)(=O)CC(=O)Oc1c(C(C)C)cccc1C(C)C		
1800	CC(C)c1cccc(C(C)C)c1OS(=O)(=O)CC(=O)NC(c1ccccc1)c1ccccc1	-43	
1000	CCCCCCSC(=O)CS(=O)(=O)Nc1c(C(C)C)cccc1C(C)C		
3000	CCCCCCCCCCCCNC(=O)CS(=O)(=O)Oc1c(C(C)C)cccc1C(C)C		DeltaTC (Rattus norvegicus [6]): -3%
> 1000	CCCCCCCCOC(=O)CS(=O)(=O)Nc1c(C(C)C)cccc1C(C)C		DeltaTC (Rattus norvegicus [6]): -4%
350	CC(C)c1cccc(C(C)C)c1NC(=O)CS(=O)(=O)Nc1c(C(C)C)cccc1C(C)C		DeltaTC (Rattus norvegicus [7]): -51%
2800	CC(C)c1cc(C(C)C)c(OC(=O)CS(=O)(=O)Nc2c(C(C)C)cccc2C(C)C)c(C(C)C)c1		DeltaTC (Rattus norvegicus [6]): -19%
7	CC(C)c1cc(C(C)C)c(OS(=O)(=O)CC(=O)Nc2c(C(C)C)cccc2C(C)C)c(C(C)C)c1	-60	
> 1000	CCCCCCOC(=O)CS(=O)(=O)Nc1c(C(C)C)cccc1C(C)C		DeltaTC (Rattus norvegicus [6]): -5%
> 1000	COc1cc(OC)c(OC(=O)CS(=O)(=O)Nc2c(C(C)C)cccc2C(C)C)c(OC)c1		DeltaTC (Rattus norvegicus [6]): -6%
> 1000	CC(C)c1cc(C(C)C)c(NS(=O)(=O)CC(=O)Oc2c(C(C)C)cccc2C(C)C)c(C(C)C)c1	-29	
> 1000	CCOC(=O)CS(=O)(=O)Nc1c(C(C)C)cccc1C(C)C		DeltaTC (Rattus norvegicus [6]): 2%
> 5000	CCCCCCNC(=O)CS(=O)(=O)Nc1c(C(C)C)cccc1C(C)C		DeltaTC (Rattus norvegicus [3]): -16%
> 50000	CC(C)c1cccc(C(C)C)c1NS(=O)(=O)CC(=O)Sc1c(C(C)C)cccc1C(C)C		DeltaTC (Rattus norvegicus [6]): -16%
12000	CC(C)c1cc(C(C)C)c(CC(=O)NS(=O)(=O)Oc2c(C(C)C)cccc2C(C)C)c(C(C)C)c1 [AVASIMIBE]	-73	
